Experimental findings from ChEMBL document CHEMBL1201862, “PubChem BioAssay data set” (2004) are described below.

Among the test systems are BT-549; MCF7; M14; PC-3; SW-620; SK-MEL-5; OVCAR-5; T47D; CAKI-1; HOP-62; SF-268; DU-145; UACC-62; NCI/ADR-RES; OVCAR-3; HT-29; RXF 393; NCI-H460; Malme-3M; UACC-257.
Holding throughout (test): DTP human tumour cell line panel, 48 h

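All cell lines were grown in 96-well plates and treated with compound for 48 hours. GI50 marks 50% less growth.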 The source made the active and inactive calls. Rule as the data show it: active = GI50 up to about 1.1 µM and inactive = higher.

`Sc1nc2c(c(-c3nc(S)nc4c3CCCCCCCCCC4)n1)CCCCCCCCCC2`: the GI50 in the assay on BT-549, in the assay on MCF7, with M14, with PC-3, in the assay on SW-620 and in the assay on SK-MEL-5 was > 100 µM (inactive) each time. The GI50 with OVCAR-5, in the assay on T47D, in the assay with CAKI-1, in the assay with HOP-62, with SF-268 and with DU-145 was > 100 µM (inactive) in each case. In addition, the GI50 with UACC-62, with NCI/ADR-RES, with OVCAR-3, in the assay on HT-29, with RXF 393 and in the assay on NCI-H460 was > 100 µM (inactive) each time. Besides, the GI50 in the assay on Malme-3M and in the assay with UACC-257 was > 100 µM (inactive) each time.
Take `C[C@]12CC[C@@H]3c4ccc(OCC(=O)O)cc4CC[C@H]3[C@@H]1CCC2=O`: the GI50 in the assay with BT-549, in the assay with MCF7, in the assay on M14, with PC-3, in the assay on SW-620 and with SK-MEL-5 was > 100 µM (inactive) throughout. Besides, the GI50 in the assay with OVCAR-5, in the assay with T47D, in the assay with CAKI-1, in the assay with HOP-62, in the assay with SF-268 and in the assay with DU-145 was > 100 µM (inactive) in each case. The GI50 in the assay on UACC-62, in the assay with NCI/ADR-RES, in the assay on OVCAR-3, in the assay with HT-29, in the assay on RXF 393 and in the assay on NCI-H460 was > 100 µM (inactive) throughout. The GI50 in the assay on Malme-3M and with UACC-257 was > 100 µM (inactive) throughout.
For the compound `CCOC(=O)C1C(=O)CC(O)(c2ccccc2)C(C(=O)OCC)C1c1ccc(N(C)C)cc1` (stereo not given), the GI50 (in general, the concentration giving 50% growth inhibition) with BT-549 was 28.6 µM (inactive); with MCF7, 21.8 µM (inactive); in the assay on M14, 35.6 µM (inactive); in the assay with PC-3, 18.3 µM (inactive); with SW-620, 19.8 µM (inactive); in the assay on SK-MEL-5, 22.3 µM (inactive). Also, the GI50 was 74.3 µM (inactive) in the assay with OVCAR-5; 27.6 µM (inactive) in the assay with T47D; 51.2 µM (inactive) in the assay on CAKI-1; 30.8 µM (inactive) in the assay on HOP-62; 24.9 µM (inactive) with SF-268; 57.1 µM (inactive) with DU-145. The GI50 in the assay with UACC-62 is 33.4 µM (inactive); in the assay on NCI/ADR-RES, 26.6 µM (inactive); in the assay on OVCAR-3, 24 µM (inactive); in the assay on HT-29, 15.8 µM (inactive); in the assay with RXF 393, 14.7 µM (inactive); in the assay with NCI-H460, 20 µM (inactive). The values for the GI50 with Malme-3M and in the assay with UACC-257 were 18.2 µM (inactive) and 63.8 µM (inactive), respectively.
In the case of `O=[N+]([O-])c1cc(F)ccc1S(=O)(=O)c1ccccc1`, the GI50 in the assay with BT-549, in the assay with MCF7, with M14, in the assay on PC-3, in the assay with SW-620 and in the assay on SK-MEL-5 was > 10 µM (inactive) each time. For the same compound, the GI50 in the assay on OVCAR-5, in the assay with T47D, in the assay with CAKI-1, in the assay on HOP-62, in the assay with SF-268 and in the assay with DU-145 was > 10 µM (inactive) each time. Further, the GI50 in the assay with UACC-62, with NCI/ADR-RES, with OVCAR-3, with HT-29, in the assay with RXF 393 and in the assay with NCI-H460 was > 10 µM (inactive) each time. The GI50 in the assay with Malme-3M and in the assay on UACC-257 was > 10 µM (inactive) throughout.
On to `CC(=O)OC(C)(C)/C=C/C(=O)[C@](C)(O)[C@H]1[C@H](O)C[C@@]2(C)[C@@H]3CC=C4[C@@H](C=C(O)C(=O)C4(C)C)[C@]3(C)C(=O)C[C@]12C` [CUCURBITACIN E], for which the GI50 in the assay with BT-549 was 0.027 µM (active); with MCF7, 0.054 µM (active); with M14, 0.0375 µM (active); in the assay on PC-3, 0.259 µM (active); in the assay with SW-620 it was 0.0438 µM (active); with SK-MEL-5 it was 0.0406 µM (active). Besides, the GI50 is 0.186 µM (active) in the assay on OVCAR-5; 0.217 µM (active) in the assay on T47D; 0.0216 µM (active) in the assay on CAKI-1; 0.0408 µM (active) in the assay on HOP-62; 0.0275 µM (active) with SF-268; 0.0262 µM (active) with DU-145. The GI50 is 0.065 µM (active) in the assay with UACC-62; 0.129 µM (active) with NCI/ADR-RES; 0.0459 µM (active) in the assay on OVCAR-3; 0.0202 µM (active) in the assay with HT-29; 0.0177 µM (active) in the assay on RXF 393; 0.0222 µM (active) with NCI-H460. Further, the GI50 with Malme-3M is 0.0366 µM (active); in the assay with UACC-257, 0.0385 µM (active).
With `O=P(O)(NCCCl)NCCCl` [PALIFOSFAMIDE], the GI50 with BT-549 is > 100 µM (inactive); in the assay on MCF7 it was > 100 µM (inactive); in the assay on M14, > 100 µM (inactive); in the assay with PC-3, > 100 µM (inactive); in the assay on SW-620, > 10 µM (inactive); in the assay with SK-MEL-5 it was > 10 µM (inactive). For the same compound, the GI50 with OVCAR-5 was > 10 µM (inactive); in the assay with T47D, > 100 µM (inactive); with CAKI-1 it was 39.8 µM (inactive); in the assay on HOP-62, 65.6 µM (inactive); with SF-268, 57.8 µM (inactive); with DU-145, 92.9 µM (inactive). Further, the GI50 in the assay with UACC-62 is 38.6 µM (inactive); in the assay with NCI/ADR-RES it was > 100 µM (inactive); with OVCAR-3, > 10 µM (inactive); in the assay with HT-29, > 10 µM (inactive); in the assay on RXF 393, > 10 µM (inactive); in the assay on NCI-H460, 28.8 µM (inactive). For the same compound, the GI50 with Malme-3M was > 100 µM (inactive); in the assay on UACC-257 it was > 10 µM (inactive).
